In the CheMixHub drug solubility set:

Test: xn = mol fraction of the nth substance listed, in the solute-free solvent

COC(=O)C(N)CS.Cl (stereo unspecified) + CCO + ClCCl
solubility (g/100 g solution)
Details	x2 = 0.05	x2 = 0.1	x2 = 0.2	x2 = 0.3	x2 = 0.4	x2 = 0.5	x2 = 0.6	x2 = 0.7	x2 = 0.8	x2 = 0.9
283.15 K	0.323	0.991	1.88	2.62	3.2	3.86	4.64	5.33	6.02	6.92
288.15 K	0.362	1.02	2.21	3.14	3.93	4.46	5.07	5.91	6.77	7.59
293.15 K	0.393	1.21	2.46	3.54	4.26	5.23	5.88	6.62	7.47	8.49
298.15 K	0.43	1.4	2.7	4.09	4.98	5.89	6.66	7.51	8.75	9.98
303.15 K	0.493	1.42	3.03	4.65	5.72	6.77	7.79	8.77	10.3	11.9

CC1CCC2C(C)C(OC(=O)CCC(=O)O)OC3OC4(C)CCC1C32OO4 (stereo unspecified) + CCO + O
solubility (g/100 g solution)
Details	278.15 K	283.15 K	288.15 K	293.15 K	298.15 K	303.15 K	308.15 K	313.15 K	318.15 K
x2 = 0.04179	0.113	0.146	0.183	0.23	0.279	0.348	0.427	0.517	0.627
x2 = 0.08949	0.369	0.462	0.563	0.69	0.817	0.994	1.19	1.41	1.66
x2 = 0.1436	0.816	0.995	1.19	1.43	1.66	1.97	2.32	2.69	3.12
x2 = 0.2067	1.38	1.65	1.94	2.29	2.62	3.07	3.55	4.06	4.64
x2 = 0.2813	1.97	2.33	2.69	3.13	3.56	4.1	4.66	5.26	5.94
x2 = 0.3699	2.54	2.92	3.37	3.87	4.36	4.95	5.59	6.25	6.96
x2 = 0.4771	3.08	3.48	3.92	4.47	5.03	5.67	6.34	7.03	7.74
x2 = 0.6102	3.61	4.02	4.51	5.11	5.67	6.29	6.98	7.63	8.37
x2 = 0.7797	4.05	4.46	4.95	5.55	6.12	6.72	7.39	8.06	8.72

CCCSc1ccc2[nH]c(NC(=O)OC)nc2c1 + CCO + O
solubility (g/100 g solution)
Details	x2 = 0.0416	x2 = 0.0891	x2 = 0.1435	x2 = 0.2068	x2 = 0.2811	x2 = 0.3697	x2 = 0.4771	x2 = 0.61	x2 = 0.7787
288.95 K	0.00065	0.00225	0.0048	0.00531	0.0142	0.031	0.0476	0.0657	0.0669
293.15 K	0.00113	0.00279	0.0063	0.00878	0.0211	0.0396	0.0538	0.0706	0.0729
297.15 K	0.00141	0.0033	0.00736	0.0137	0.025	0.0476	0.0643	0.0856	0.0933
301.25 K	0.00181	0.00417	0.00932	0.0172	0.0324	0.0565	0.0753	0.0966	0.11
305.15 K	0.00257	0.00518	0.0114	0.0207	0.04	0.0682	0.0957	0.124	0.137
309.15 K	0.00328	0.00624	0.0127	0.025	0.048	0.0834	0.118	0.162	0.169
313.05 K	0.00395	0.00729	0.0156	0.0318	0.0594	0.104	0.149	0.204	0.208
317.25 K	0.00594	0.00852	0.0188	0.0386	0.0732	0.12	0.185	0.242	0.25

CCOC(=O)OC1=C(c2cc(C)ccc2C)C(=O)NC12CCC(OC)CC2 (stereo unspecified) + CCO + O
solubility (g/100 g solution)
Details	278.15 K	283.15 K	288.15 K	293.15 K	298.15 K	303.15 K	308.15 K	313.15 K	318.15 K
x2 = 0.2	0.0705	0.151	0.226	0.365	0.51	0.748	1.02	1.33	1.82
x2 = 0.4	1.44	1.85	2.31	2.96	3.91	5.06	6.59	8.52	11.1
x2 = 0.6	2.83	3.59	4.57	5.78	7.18	9.11	11.5	14.3	17.8
x2 = 0.8	3.14	3.95	4.97	6.19	7.77	9.63	12	15	18.7

Cc1nc2n(c(=O)c1CCN1CCC(c3noc4cc(F)ccc34)CC1)CCCC2 + CCO + O
solubility (g/100 g solution)
Details	278.15 K	283.15 K	288.15 K	293.15 K	298.15 K	303.15 K	308.15 K	313.15 K
x2 = 0.1436	0.173	0.214	0.262	0.329	0.397	0.487	0.592	0.73
x2 = 0.2069	0.628	0.744	0.919	1.1	1.4	1.68	2.06	2.58
x2 = 0.2812	1.72	2.03	2.47	2.94	3.58	4.32	5.34	6.64
x2 = 0.3627	3.31	3.98	4.66	5.53	6.67	8.06	9.77	12
x2 = 0.4768	4.74	5.58	6.59	7.76	9.19	11	13.2	15.9
x2 = 0.6101	4.86	5.65	6.62	7.77	9.18	10.8	12.9	15.2
x2 = 0.779	3.01	3.56	4.18	4.97	5.91	7.06	8.5	10.1

Nc1nc2ccc(OC(F)(F)F)cc2s1 + CCO + O
solubility (g/100 g solution)
Details	278.15 K	283.15 K	288.15 K	293.15 K	298.15 K	303.15 K	308.15 K	313.15 K	318.15 K	323.15 K
x2 = 0.2068	16	19.7	23.8	26.5	32.5	38.3	43.3	47.4	51.7	55.5
x2 = 0.2812	31.4	35.5	39.9	43.9	48.1	52.1	56.1	59.6	62.5	64.8
x2 = 0.3697	56.3	58.7	60.7	63.2	65.5	67.8	69.7	70.9	72.7	74
x2 = 0.4772	50.7	53.3	55.4	58.1	60.6	63.6	66	68	69.9	71.4
x2 = 0.6099	53.2	55.1	57.4	59.7	61.7	63.6	65.3	67	68.6	69.9
x2 = 0.7786	52.6	54.4	57.2	59	61.3	63.1	64.9	66.7	68.2	70

O=C(NC(C(=O)O)c1ccccc1)OCc1ccccc1 (stereo unspecified) + CCO + O
solubility (g/100 g solution)
Details	x2 = 0.1	x2 = 0.2	x2 = 0.3	x2 = 0.4	x2 = 0.5	x2 = 0.6	x2 = 0.7	x2 = 0.8	x2 = 0.9
283.15 K	0.0534	0.628	1.49	2.83	4.36	6.29	8.19	11.1	11.8
293.15 K	0.0958	0.786	2.21	4.37	6.76	9.75	13.4	17.7	18.1
303.15 K	0.153	1.18	3.44	7.93	12.3	17.6	21.9	26.9	27.3
313.15 K	0.239	1.91	6.85	13.9	22.6	29.6	35.5	39.3	40.2
323.15 K	0.396	3.17	12.7	24	37.5	45.5	49.1	51.8	52.6

FC(F)(F)c1cccnc1Cl + CCOC(C)=O + CCCCO
solubility (g/100 g solution)
Details	263.15 K	268.15 K	273.15 K	278.15 K	283.15 K	288.15 K	293.15 K	298.15 K	303.15 K
x2 = 0.2518	27.4	32.6	37.9	43.8	50.9	57.7	64.8	71.6	77.6
x2 = 0.4023	33.5	38.3	42.5	49.6	54.8	61.4	68	74.3	80.5
x2 = 0.5999	37.2	42.5	47.4	53.5	60.2	66.6	72.6	78.8	84.3
x2 = 0.7998	42.4	47.7	52.6	59	64.3	70.8	76.8	82.4	87.4

Cc1c(Br)c(=O)n(C2CCCC2)c2nc(Cl)ncc12 + CCOC(C)=O + CCO
solubility (g/100 g solution)
Details	278.15 K	283.15 K	288.15 K	293.15 K	298.15 K	303.15 K	308.15 K	313.15 K	318.15 K	323.15 K
x2 = 0.1	0.181	0.219	0.26	0.312	0.368	0.429	0.506	0.589	0.684	0.79
x2 = 0.2	0.238	0.286	0.341	0.403	0.475	0.553	0.645	0.746	0.86	0.987
x2 = 0.3	0.297	0.353	0.418	0.491	0.574	0.668	0.775	0.892	1.02	1.17
x2 = 0.4	0.349	0.414	0.492	0.571	0.665	0.77	0.888	1.02	1.17	1.32
x2 = 0.5	0.396	0.467	0.548	0.639	0.742	0.856	0.984	1.13	1.28	1.45
x2 = 0.6	0.438	0.514	0.602	0.701	0.811	0.931	1.07	1.22	1.38	1.57
x2 = 0.7	0.478	0.56	0.652	0.756	0.873	1	1.15	1.3	1.48	1.67
x2 = 0.8	0.52	0.608	0.706	0.817	0.939	1.08	1.23	1.39	1.57	1.77
x2 = 0.9	0.571	0.665	0.77	0.888	1.02	1.16	1.32	1.5	1.69	1.9
